Measured values as given in patent publication US20140249139A1, “Quinazoline Derivatives” (NOVARTIS AG, priority 2011, published 2014).

Key:
PI3K delta = target: T1, PI3K delta (Homo sapiens, UniProt O00329); test: Enzymatic PI3K delta isoform inhibition (lipid kinase activity, Kinase-Glo); type: biochemical; settings: enzymatic assay
T1 construct: for the full-length p110-d subunit are generated and fused by overlapping PCR; His tag (C); made in house; host or cells: baculovirus BV1060; Tn5 (Trichoplusia ni) or TiniPro insect cells
T1 sequence (O00329 with tags, fused parts or gaps limits assumed, species assumed): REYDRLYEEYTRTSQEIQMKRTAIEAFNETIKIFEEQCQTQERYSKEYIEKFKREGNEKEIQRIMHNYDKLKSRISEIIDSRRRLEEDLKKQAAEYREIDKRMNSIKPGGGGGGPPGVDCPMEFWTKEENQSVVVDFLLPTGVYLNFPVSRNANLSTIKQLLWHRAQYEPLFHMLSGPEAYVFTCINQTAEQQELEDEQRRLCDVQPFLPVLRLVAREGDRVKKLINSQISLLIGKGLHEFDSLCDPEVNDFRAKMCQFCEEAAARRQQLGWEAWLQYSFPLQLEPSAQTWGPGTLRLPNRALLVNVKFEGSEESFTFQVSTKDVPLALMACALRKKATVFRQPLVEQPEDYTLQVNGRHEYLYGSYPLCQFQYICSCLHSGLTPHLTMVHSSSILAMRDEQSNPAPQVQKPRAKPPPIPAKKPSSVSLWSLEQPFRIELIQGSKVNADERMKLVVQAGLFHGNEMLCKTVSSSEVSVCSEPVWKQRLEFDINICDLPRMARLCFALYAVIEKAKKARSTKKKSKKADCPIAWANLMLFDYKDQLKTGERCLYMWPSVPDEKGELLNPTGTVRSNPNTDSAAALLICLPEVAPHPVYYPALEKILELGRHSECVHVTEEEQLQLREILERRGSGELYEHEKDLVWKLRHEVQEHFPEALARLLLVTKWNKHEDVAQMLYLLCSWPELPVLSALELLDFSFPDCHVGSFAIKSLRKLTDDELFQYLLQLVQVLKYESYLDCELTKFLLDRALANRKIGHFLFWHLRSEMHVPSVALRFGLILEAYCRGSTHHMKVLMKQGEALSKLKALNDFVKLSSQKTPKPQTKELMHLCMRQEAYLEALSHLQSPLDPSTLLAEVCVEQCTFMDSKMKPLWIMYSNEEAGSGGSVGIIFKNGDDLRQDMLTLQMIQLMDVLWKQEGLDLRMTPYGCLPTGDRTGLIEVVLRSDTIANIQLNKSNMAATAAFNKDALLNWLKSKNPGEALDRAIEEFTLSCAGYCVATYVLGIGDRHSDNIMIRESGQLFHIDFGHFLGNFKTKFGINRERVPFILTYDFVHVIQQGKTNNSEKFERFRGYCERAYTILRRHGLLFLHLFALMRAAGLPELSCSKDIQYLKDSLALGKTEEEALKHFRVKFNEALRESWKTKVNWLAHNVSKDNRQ
Description: (§1) The components of the assay are added per well as follows:
(§2) IC50 is determined by a four parameter curve fitting routine that comes along with “excel fit”.
(§3) Yet alternatively, for an ATP depletion assay, compounds of the formula I to be tested are dissolved in DMSO and directly distributed into a white 384-well plate at 0.5 μl per well. To start the reaction, 10 μl of 10 nM PI3 kinase and 5 μg/ml 1-alpha-phosphatidylinositol (PI) are added into each well followed by 10 μl of 2 μM ATP. The reaction is performed until approx 50% of the ATP is depleted, and then stopped by the addition of 20 μl of Kinase-Glo solution (Promega Corp., Madison, Wis., USA). The stopped reaction is incubated for 5 minutes and the remaining ATP is then detected via luminescence. IC50 values are then determined.

PI3K alpha = target: T2, PI3K alpha (Homo sapiens, UniProt P42336); test: Enzymatic PI3K alpha isoform inhibition (lipid kinase activity, Kinase-Glo); type: biochemical; settings: enzymatic assay
T2 construct: for the p110-a subunit (with a deletion of the first 20 amino acids) are generated; His tag (C); made in house; host or cells: baculovirus BV1075; Tn5 (Trichoplusia ni) or TiniPro insect cells
T2 sequence (P42336 with tags, fused parts or gaps limits assumed, species assumed): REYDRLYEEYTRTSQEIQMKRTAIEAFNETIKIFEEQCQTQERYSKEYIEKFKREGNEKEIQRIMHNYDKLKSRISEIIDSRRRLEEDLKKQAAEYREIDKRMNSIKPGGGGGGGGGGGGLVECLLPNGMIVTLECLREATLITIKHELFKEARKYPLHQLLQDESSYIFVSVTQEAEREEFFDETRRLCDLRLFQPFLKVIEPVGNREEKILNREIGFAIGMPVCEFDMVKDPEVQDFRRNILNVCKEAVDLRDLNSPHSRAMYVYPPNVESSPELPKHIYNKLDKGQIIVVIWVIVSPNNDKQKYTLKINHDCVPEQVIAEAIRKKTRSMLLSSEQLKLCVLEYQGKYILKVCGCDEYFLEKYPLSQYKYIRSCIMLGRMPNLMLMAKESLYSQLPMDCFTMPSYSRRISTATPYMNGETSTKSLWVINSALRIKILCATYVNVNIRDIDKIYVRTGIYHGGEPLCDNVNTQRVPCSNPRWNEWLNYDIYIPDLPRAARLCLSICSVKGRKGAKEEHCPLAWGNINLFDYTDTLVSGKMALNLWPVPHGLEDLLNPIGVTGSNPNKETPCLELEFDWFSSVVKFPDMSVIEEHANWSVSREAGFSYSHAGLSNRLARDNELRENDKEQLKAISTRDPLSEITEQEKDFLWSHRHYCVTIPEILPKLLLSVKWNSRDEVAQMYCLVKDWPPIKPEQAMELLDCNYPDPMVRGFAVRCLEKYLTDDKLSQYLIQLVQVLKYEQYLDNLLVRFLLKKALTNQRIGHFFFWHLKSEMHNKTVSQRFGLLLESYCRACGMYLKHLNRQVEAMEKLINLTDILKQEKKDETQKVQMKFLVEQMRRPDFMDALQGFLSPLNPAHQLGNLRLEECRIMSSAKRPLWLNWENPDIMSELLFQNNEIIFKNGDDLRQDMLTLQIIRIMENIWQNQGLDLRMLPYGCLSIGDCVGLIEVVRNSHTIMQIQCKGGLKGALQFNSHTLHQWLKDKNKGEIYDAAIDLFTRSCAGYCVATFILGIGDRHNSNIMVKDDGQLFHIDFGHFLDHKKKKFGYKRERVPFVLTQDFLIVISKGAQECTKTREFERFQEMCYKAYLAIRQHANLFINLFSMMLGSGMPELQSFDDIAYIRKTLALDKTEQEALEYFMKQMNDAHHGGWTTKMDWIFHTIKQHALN
Description: as §1, §2, §3

Row | IC50 (PI3K delta) [nM] | IC50 (PI3K alpha) [nM] | SMILES
1 | 8 | 550 | COc1ncc(-c2ccc3ncnc(-c4cncc(C(=O)N5CCS(=O)(=O)CC5)c4)c3c2)cc1C#N [Example 71]
2 | 7 | 372 | COc1ccc(-c2ccc3ncnc(-c4cccc(C(=O)N5CC6CC5CN6)c4)c3c2)cn1 (stereo not shown) [Example 38, (2,5-Diaza-bicyclo[2.2.1]hept-2-yl)-{3-[6-(6-methoxy-pyridin-3-yl)-quinazolin-4-yl]-phenyl}-methanone]
3 | 11 | 374 | Cc1ccc(-c2ccc3ncnc(-c4cccc(C(=O)N5CCN(C)CC5)c4)c3c2)cc1S(C)(=O)=O [Example 43]
4 | 36.5 | 1200 | COc1ccc(-c2ccc3ncnc(-c4cccc(C(=O)N5CCN(C)CC5)c4)c3c2)cc1C#N [Example 45]
5 | 5 | 150 | COc1ncc(-c2ccc3ncnc(-c4cncc(C(=O)N5CCN(C)C(C)(C)C5)c4)c3c2)cc1C(F)(F)F [Example 74]
6 | 9 | 281 | COc1ccc(-c2ccc3ncnc(-c4cccc(C(=O)N5CCOC(C)(C)C5)c4)c3c2)cn1 [Example 95, (2,2-Dimethyl-morpholin-4-yl)-{3-[6-(6-methoxy-pyridin-3-yl)-quinazolin-4-yl]-phenyl}-methanone]
7 | 6 | 316 | CCC(=O)N1CCN(C(=O)c2cccc(-c3ncnc4ccc(-c5cnc(OC)c(C#N)c5)cc34)c2)CC1 [Example 96, 2-Methoxy-5-{4-[3-(4-propionyl-piperazine-1-carbonyl)-phenyl]-quinazolin-6-yl}-nicotinonitrile]
8 | 6 | 505 | COc1ncc(-c2ccc3ncnc(-c4cncc(C(=O)N5CCOC(C)(C)C5)c4)c3c2)cc1F [Example 63]
9 | 11.5 | 770 | COc1ccc(-c2ccc3ncnc(-c4cccc(C(=O)N5C[C@@H]6C[C@H]5CN6)c4)c3c2)cc1C(F)(F)F [Example 39]
10 | 21.5 | 1330 | COc1ccc(-c2ccc3ncnc(-c4cncc(C(=O)N5CCOCC5)c4)c3c2)cc1C(F)(F)F [Example 82, {5-[6-(4-Methoxy-3-trifluoromethyl-phenyl)-quinazolin-4-yl]-pyridin-3-yl}-morpholin-4-yl-methanone]
11 | 3 | 75 | COc1ncc(-c2ccc3ncnc(-c4cccc(C(=O)N5C[C@@H]6C[C@H]5CN6C)c4)c3c2)cc1C(F)(F)F [Example 29]
12 | 9.5 | 763 | COc1ccc(-c2ccc3ncnc(-c4cncc(C(=O)N5CCOC(C)(C)C5)c4)c3c2)cc1C(F)(F)F [Example 66]
13 | 14.5 | 2270 | COc1ccc(-c2ccc3ncnc(-c4cccc(C(=O)N5CCN(C)CC5)c4)c3c2)cc1S(=O)(=O)N1CCOCC1 [Example 21]
14 | 17 | 1230 | CN1CCN(C(=O)c2cccc(-c3ncnc4ccc(-c5ccc(N6CCCC6)nc5)cc34)c2)CC1 [Example 15]
15 | 42.5 | 888 | COc1ccc(-c2ccc3ncnc(-c4ccc(C)c(C(=O)N5CCN(C)CC5)c4)c3c2)cn1 [Example 115, {5-[6-(6-Methoxy-pyridin-3-yl)-quinazolin-4-yl]-2-methyl-phenyl}-(4-methyl-piperazin-1-yl)-methanone]
16 | 14 | 573 | COc1ccc(-c2ccc3ncnc(-c4cncc(C(=O)N5C[C@@H]6C[C@H]5CN6C)c4)c3c2)cn1 [Example 77, {5-[6-(6-Methoxy-pyridin-3-yl)-quinazolin-4-yl]-pyridin-3-yl}-((1S,4S)-5-methyl-2,5-diaza-bicyclo[2.2.1]hept-2-yl)-methanone]

Row | IC50 (PI3K delta) [nM] | IC50 (PI3K alpha) [nM] | SMILES
17 | 16 | 1270 | COc1ccc(-c2ccc3ncnc(-c4cc(C(=O)N5CCN(C(C)=O)CC5)cc(C(F)(F)F)c4)c3c2)cn1 [Example 101, 1-(4-{3-[6-(6-Methoxy-pyridin-3-yl)-quinazolin-4-yl]-5-trifluoromethyl-benzoyl}-piperazin-1-yl)-ethanone]
18 | 9 | 1160 | COc1ncc(-c2ccc3ncnc(-c4cccc(C(=O)N5CCN(C(C)=O)CC5)c4)c3c2)cn1 [Example 4]
19 | 3 | 69.5 | COc1ncc(-c2ccc3ncnc(-c4cncc(C(=O)N5CCN(C)C(C)(C)C5)c4)c3c2)cc1C [Example 72]
20 | 3 | 97 | COc1ncc(-c2ccc3ncnc(-c4cncc(C(=O)N5CCOCC5)c4)c3c2)cc1C(F)(F)F [Example 68]
21 | 3 | 270 | CNc1ncc(-c2ccc3ncnc(-c4cccc(C(=O)N5CCN(C)CC5)c4)c3c2)cc1C [Example 40, {3-[6-(5-Methyl-6-methylamino-pyridin-3-yl)-quinazolin-4-yl]-phenyl}-(4-methyl-piperazin-1-yl)-methanone]
22 | 20.5 | 708 | CNc1ccc(-c2ccc3ncnc(-c4cccc(C(=O)N5CCN(C)CC5)c4)c3c2)cn1 [Example 41]
23 | 7 | 174 | CC1(C)CN(C(=O)c2cccc(-c3ncnc4ccc(-c5ccc(N)nc5)cc34)c2)CCO1 [Example 32]
24 | 7 | 472 | COc1ncc(-c2ccc3ncnc(-c4cncc(C(=O)N5CCN(C(C)=O)CC5)c4)c3c2)cc1C#N [Example 53]
25 | 27 | > 9100 | CN1CCN(C(=O)c2cccc(-c3ncnc4ccc(-c5cc(NS(C)(=O)=O)cc(C(F)(F)F)c5)cc34)c2)CC1 [Example 47]
26 | 7 | 720 | COc1cc(C(=O)N2CCN(C(C)=O)CC2)cc(-c2ncnc3ccc(-c4cnc(OC)c(C#N)c4)cc23)c1 [Example 105, 5-{4-[3-(4-Acetyl-piperazine-1-carbonyl)-5-methoxy-phenyl]-quinazolin-6-yl}-2-methoxy-nicotinonitrile]
27 | 8.5 | 1320 | CCOc1ncc(-c2ccc3ncnc(-c4cccc(C(=O)N5CCN(C(C)=O)CC5)c4)c3c2)cn1 [Example 5]
28 | 38 | 3290 | COc1ncc(-c2ccc3ncnc(-c4cc(C(=O)N5CCN(C(C)=O)CC5)cc(C(F)(F)F)c4)c3c2)cn1 [Example 104, 1-(4-{3-[6-(2-Methoxy-pyrimidin-5-yl)-quinazolin-4-yl]-5-trifluoromethyl-benzoyl}-piperazin-1-yl)-ethanone]
29 | 5.5 | 646 | COc1ccc(-c2ccc3ncnc(-c4cncc(C(=O)N5CCN(C)CC5)c4)c3c2)cc1C(F)(F)F [Example 58]
30 | 10.5 | 717 | COc1ccc(-c2ccc3ncnc(-c4cncc(C(=O)N5CC(C)NC(C)C5)c4)c3c2)cc1C(F)(F)F (stereo not shown) [Example 80, (3,5-Dimethyl-piperazin-1-yl)-{5-[6-(4-methoxy-3-trifluoromethyl-phenyl)-quinazolin-4-yl]-pyridin-3-yl}-methanone]
31 | 10 | 1360 | COc1ncc(-c2ccc3ncnc(-c4cc(F)cc(C(=O)N5CCN(C(C)=O)CC5)c4)c3c2)cn1 [Example 111, 1-(4-{3-Fluoro-5-[6-(2-methoxy-pyrimidin-5-yl)-quinazolin-4-yl]-benzoyl}-piperazin-1-yl)-ethanone]
32 | 7 | 1150 | COc1ncc(-c2ccc3ncnc(-c4cncc(C(=O)N5CCOC(C)(C)C5)c4)c3c2)cc1C#N [Example 62]
